Assay results taken from article PMC12751012, “Nanoscale Direct-to-Biology Optimization and Structural Insights into Selective S. aureus TrmD Inhibitors” (Journal of Medicinal Chemistry, 2025).

Biological target: T1, S. aureus TrmD (Staphylococcus aureus, UniProt Q2FZ43)
T1 construct: made in house; host or cells: E. coli BL21
T1 sequence (Q2FZ43 1-245): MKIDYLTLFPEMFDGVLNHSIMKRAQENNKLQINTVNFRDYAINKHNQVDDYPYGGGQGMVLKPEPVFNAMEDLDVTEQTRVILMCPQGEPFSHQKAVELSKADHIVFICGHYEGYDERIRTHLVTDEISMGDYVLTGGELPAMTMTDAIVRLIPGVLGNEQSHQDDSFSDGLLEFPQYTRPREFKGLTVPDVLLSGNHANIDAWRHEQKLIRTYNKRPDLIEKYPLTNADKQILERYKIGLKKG
Assay: nanoSAR direct-to-biology FP displacement screening of crude triazoles
Type: binding
Conditions: crude triazole at 1 μM, assuming full conversion; 500 nM TrmD, 10 nM tracer 4; read-out: % displaced tracer
In short: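 Crude CuAAC triazoles from alkyne 7 and 320 diverse azides were screened by FP displacement of 10 nM tracer 4 from 500 nM S. aureus TrmD. Buffer was 40 mM Tris HCl, 100 mM NaCl, 10 mM MgCl2, 5% glycerol, pH 7.5.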

Structure (SMILES): COc1cccc(OC)c1Cn1cc(-c2c[nH]c3nc[nH]c(=O)c23)nn1 [Compound 02D12, O=C1NC=NC=2NC=C(C=3N=NN(C3)Cc4c(OC)cccc4OC)C12]
- inhibition at 1 µM: 18%

Structure (SMILES): O=c1[nH]cnc2[nH]cc(-c3cn(CCCO)nn3)c12 [Compound 01G05, O=C1NC=NC=2NC=C(C=3N=NN(C3)CCCO)C12]
- inhibition at 1 µM: 32%

Structure (SMILES): CCNC(=O)Cn1cc(-c2c[nH]c3nc[nH]c(=O)c23)nn1 [Compound 01E09, O=C1NC=NC=2NC=C(C=3N=NN(C3)CC(=O)NCC)C12]
- inhibition at 1 µM: 33%

Structure (SMILES): O=c1[nH]cnc2[nH]cc(-c3cn(-c4cccc5ccncc45)nn3)c12 [Compound 03F04, O=C1NC=NC=2NC=C(C=3N=NN(c4c5c(ccnc5)ccc4)C3)C12]
- inhibition at 1 µM: 22%

Structure (SMILES): NS(=O)(=O)c1ccccc1-n1cc(-c2c[nH]c3nc[nH]c(=O)c23)nn1 [Compound 01G01, S(=O)(=O)(N)c1c(N2N=NC(C=3C=4C(=O)NC=NC4NC3)=C2)cccc1]
- inhibition at 1 µM: 42%

Structure (SMILES): O=C(c1ccco1)n1cc(-c2c[nH]c3nc[nH]c(=O)c23)nn1 [Compound 01G07, O=C(N1N=NC(C=2C=3C(=O)NC=NC3NC2)=C1)C=4OC=CC4]
- inhibition at 1 µM: 28%

Structure (SMILES): O=c1[nH]cnc2[nH]cc(-c3cn([C@H]4CCc5cccnc54)nn3)c12 [Compound 03G04, O=C1NC=NC=2NC=C(C=3N=NN(C3)[C@@H]4c5ncccc5CC4)C12]
- inhibition at 1 µM: 49%

Structure (SMILES): NC(=O)c1cc(-n2cc(-c3c[nH]c4nc[nH]c(=O)c34)nn2)ccn1 [Compound 01F05, O=C(N)c1nccc(N2N=NC(C=3C=4C(=O)NC=NC4NC3)=C2)c1]
- inhibition at 1 µM: 16%

Structure (SMILES): O=c1[nH]cnc2[nH]cc(-c3cn(CCOCC4CCCC4)nn3)c12 [Compound 03B11, O=C1NC=NC=2NC=C(C=3N=NN(C3)CCOCC4CCCC4)C12]
- inhibition at 1 µM: 44%

Structure (SMILES): O=c1[nH]cnc2[nH]cc(-c3cn(Cc4cc(C(F)F)on4)nn3)c12 [Compound 01G06, FC(F)C=1ON=C(C1)CN2N=NC(C=3C=4C(=O)NC=NC4NC3)=C2]
- inhibition at 1 µM: 38%

Structure (SMILES): CC(C)(C)n1cc(-c2c[nH]c3nc[nH]c(=O)c23)nn1 [Compound 03H11, O=C1NC=NC=2NC=C(C=3N=NN(C3)C(C)(C)C)C12]
- inhibition at 1 µM: 11%

Structure (SMILES): O=c1[nH]cnc2[nH]cc(-c3cn(Cc4cc(=O)n5nccc5[nH]4)nn3)c12 [Compound 02A09, O=C1N2N=CC=C2NC(=C1)CN3N=NC(C=4C=5C(=O)NC=NC5NC4)=C3]
- inhibition at 1 µM: 12%

Structure (SMILES): COC(=O)c1csc(Cn2cc(-c3c[nH]c4nc[nH]c(=O)c34)nn2)n1 [Compound 03G08, S1C(=NC(C(=O)OC)=C1)CN2N=NC(C=3C=4C(=O)NC=NC4NC3)=C2]
- inhibition at 1 µM: 10%

Structure (SMILES): O=c1[nH]cnc2[nH]cc(-c3cn(Cc4ncon4)nn3)c12 [Compound 01C09, O=C1NC=NC=2NC=C(C=3N=NN(C3)CC4=NOC=N4)C12]
- inhibition at 1 µM: 31%

Structure (SMILES): O=c1[nH]cnc2[nH]cc(-c3cn(C4CCCCC4)nn3)c12 [Compound 02A08, O=C1NC=NC=2NC=C(C=3N=NN(C3)C4CCCCC4)C12]
- inhibition at 1 µM: 11%

Structure (SMILES): O=c1[nH]cnc2[nH]cc(-c3cn(-c4cccc(F)c4)nn3)c12 [Compound 04H04, Fc1cc(N2N=NC(C=3C=4C(=O)NC=NC4NC3)=C2)ccc1]
- inhibition at 1 µM: 16%

Structure (SMILES): C[C@@H](c1cnnn1C)n1cc(-c2c[nH]c3nc[nH]c(=O)c23)nn1 [Compound 01C01, O=C1NC=NC=2NC=C(C=3N=NN(C3)[C@H](C=4N(N=NC4)C)C)C12]
- inhibition at 1 µM: 33%

Structure (SMILES): O=c1[nH]cnc2[nH]cc(-c3cn(Cc4ccc5c(c4)OCO5)nn3)c12 [Compound 03C03, O=C1NC=NC=2NC=C(C=3N=NN(C3)Cc4cc5OCOc5cc4)C12]
- inhibition at 1 µM: 70%

Structure (SMILES): Cc1ccc(Cn2cc(-c3c[nH]c4nc[nH]c(=O)c34)nn2)o1 [Compound 01H03, O=C1NC=NC=2NC=C(C=3N=NN(C3)CC=4OC(=CC4)C)C12]
- inhibition at 1 µM: 33%

Structure (SMILES): O=C(O)c1ccc(Cn2cc(-c3c[nH]c4nc[nH]c(=O)c34)nn2)cc1 [Compound 02C11, [O-]C(=O)c1ccc(cc1)CN2N=NC(C=3C=4C(=O)NC=NC4NC3)=C2]
- inhibition at 1 µM: 43%

Structure (SMILES): O=c1[nH]cnc2[nH]cc(-c3cn(CCCCF)nn3)c12 [Compound 01B09, FCCCCN1N=NC(C=2C=3C(=O)NC=NC3NC2)=C1]
- inhibition at 1 µM: 19%

Structure (SMILES): N#Cc1ccc(Cn2cc(-c3c[nH]c4nc[nH]c(=O)c34)nn2)c(F)c1 [Compound 01A01, Fc1c(ccc(C#N)c1)CN2N=NC(C=3C=4C(=O)NC=NC4NC3)=C2]
- inhibition at 1 µM: 12%

Structure (SMILES): O=c1[nH]cnc2[nH]cc(-c3cn(CC4CC(F)(F)C4)nn3)c12 [Compound 02G04, F[C@@]1(F)C[C@@H](CN2N=NC(C=3C=4C(=O)NC=NC4NC3)=C2)C1]
- inhibition at 1 µM: 15%

Structure (SMILES): Cc1ccc2c(c1)[C@H](n1cc(-c3c[nH]c4nc[nH]c(=O)c34)nn1)CCC2 [Compound 01B04, O=C1NC=NC=2NC=C(C=3N=NN(C3)[C@H]4c5c(ccc(c5)C)CCC4)C12]
- inhibition at 1 µM: 27%

Structure (SMILES): CS(=O)(=O)c1cc(Cn2cc(-c3c[nH]c4nc[nH]c(=O)c34)nn2)cc(C(F)(F)F)c1 [Compound 03A01, S(=O)(=O)(c1cc(cc(c1)CN2N=NC(C=3C=4C(=O)NC=NC4NC3)=C2)C(F)(F)F)C]
- inhibition at 1 µM: 63%

Structure (SMILES): O=c1[nH]cnc2[nH]cc(-c3cn(-c4ccc5c(c4)CCO5)nn3)c12 [Compound 01B03, O=C1NC=NC=2NC=C(C=3N=NN(c4cc5c(OCC5)cc4)C3)C12]
- inhibition at 1 µM: 52%

Structure (SMILES): O=C1CCC[C@@H](Cn2cc(-c3c[nH]c4nc[nH]c(=O)c34)nn2)N1 [Compound 04D01, O=C1NC=NC=2NC=C(C=3N=NN(C3)C[C@H]4NC(=O)CCC4)C12]
- inhibition at 1 µM: 75%

Structure (SMILES): O=c1[nH]cnc2[nH]cc(-c3cn(-c4ccccc4Cl)nn3)c12 [Compound 02F03, Clc1c(N2N=NC(C=3C=4C(=O)NC=NC4NC3)=C2)cccc1]
- inhibition at 1 µM: 22%

Structure (SMILES): O=c1[nH]cnc2[nH]cc(-c3cn(C[C@H](O)c4ccccc4)nn3)c12 [Compound 04F03, O=C1NC=NC=2NC=C(C=3N=NN(C3)C[C@H](O)c4ccccc4)C12]
- inhibition at 1 µM: 57%

Structure (SMILES): CC(C)C(=O)NCCn1cc(-c2c[nH]c3nc[nH]c(=O)c23)nn1 [Compound 02D07, O=C1NC=NC=2NC=C(C=3N=NN(C3)CCNC(=O)C(C)C)C12]
- inhibition at 1 µM: 41%

Structure (SMILES): O=c1[nH]cnc2[nH]cc(-c3cn(-c4ccc(CCO)cc4)nn3)c12 [Compound 02G03, O=C1NC=NC=2NC=C(C=3N=NN(c4ccc(cc4)CCO)C3)C12]
- inhibition at 1 µM: 15%

Structure (SMILES): O=c1[nH]cnc2[nH]cc(-c3cn(CCCc4ccccc4)nn3)c12 [Compound 03H07, O=C1NC=NC=2NC=C(C=3N=NN(C3)CCCc4ccccc4)C12]
- inhibition at 1 µM: 61%

Structure (SMILES): O=c1[nH]cnc2[nH]cc(-c3cn(Cc4cn5ccccc5n4)nn3)c12 [Compound 01E04, O=C1NC=NC=2NC=C(C=3N=NN(C3)CC=4N=C5N(C4)C=CC=C5)C12]
- inhibition at 1 µM: 46%

Structure (SMILES): O=c1[nH]cnc2[nH]cc(-c3cn(-c4cc(F)cc(Cl)c4)nn3)c12 [Compound 01H10, Clc1cc(F)cc(N2N=NC(C=3C=4C(=O)NC=NC4NC3)=C2)c1]
- inhibition at 1 µM: 12%

Structure (SMILES): O=c1[nH]cnc2[nH]cc(-c3cn(C[C@H]4CCCNC4)nn3)c12 [Compound 03H01, O=C1NC=NC=2NC=C(C=3N=NN(C3)C[C@@H]4C[NH2+]CCC4)C12]
- inhibition at 1 µM: 56%

Structure (SMILES): CCOc1ccc(-n2cc(-c3c[nH]c4nc[nH]c(=O)c34)nn2)cc1 [Compound 01D07, O=C1NC=NC=2NC=C(C=3N=NN(c4ccc(OCC)cc4)C3)C12]
- inhibition at 1 µM: 19%

Structure (SMILES): O=c1[nH]cnc2[nH]cc(-c3cn(Cc4cscn4)nn3)c12 [Compound 02E07, S1C=NC(=C1)CN2N=NC(C=3C=4C(=O)NC=NC4NC3)=C2]
- inhibition at 1 µM: 80%

Structure (SMILES): O=c1[nH]cnc2[nH]cc(-c3cn(-c4ccc5c(c4)NCC5)nn3)c12 [Compound 03C06, O=C1NC=NC=2NC=C(C=3N=NN(c4cc5NCCc5cc4)C3)C12]
- inhibition at 1 µM: 25%

Structure (SMILES): O=c1[nH]cnc2[nH]cc(-c3cn(C[C@@H]4C[C@@H]4C(F)(F)F)nn3)c12 [Compound 03E06, FC(F)(F)[C@@H]1[C@H](CN2N=NC(C=3C=4C(=O)NC=NC4NC3)=C2)C1]
- inhibition at 1 µM: 34%

Structure (SMILES): CCNCCn1cc(-c2c[nH]c3nc[nH]c(=O)c23)nn1 [Compound 03E05, O=C1NC=NC=2NC=C(C=3N=NN(C3)CC[NH2+]CC)C12]
- inhibition at 1 µM: 87%

Structure (SMILES): CC(C)(C)OC(=O)N1CC(c2ocnc2Cn2cc(-c3c[nH]c4nc[nH]c(=O)c34)nn2)C1 [Compound 02B10, O=C(OC(C)(C)C)N1C[C@H](C=2OC=NC2CN3N=NC(C=4C=5C(=O)NC=NC5NC4)=C3)C1]
- inhibition at 1 µM: 37%

Structure (SMILES): O=c1[nH]cnc2[nH]cc(-c3cn(CCc4ccccn4)nn3)c12 [Compound 04G02, O=C1NC=NC=2NC=C(C=3N=NN(C3)CCc4ncccc4)C12]
- inhibition at 1 µM: 89%

Structure (SMILES): CC(C)(C)OCCCn1cc(-c2c[nH]c3nc[nH]c(=O)c23)nn1 [Compound 03C07, O=C1NC=NC=2NC=C(C=3N=NN(C3)CCCOC(C)(C)C)C12]
- inhibition at 1 µM: 42%

Structure (SMILES): Cc1cccc(CCn2cc(-c3c[nH]c4nc[nH]c(=O)c34)nn2)n1 [Compound 03H03, O=C1NC=NC=2NC=C(C=3N=NN(C3)CCc4nc(ccc4)C)C12]
- inhibition at 1 µM: 26%

Structure (SMILES): O=C1NCCN1CCn1cc(-c2c[nH]c3nc[nH]c(=O)c23)nn1 [Compound 04G03, O=C1N(CCN2N=NC(C=3C=4C(=O)NC=NC4NC3)=C2)CCN1]
- inhibition at 1 µM: 15%

Structure (SMILES): CC[C@@H](c1ccccc1F)n1cc(-c2c[nH]c3nc[nH]c(=O)c23)nn1 [Compound 02B09, Fc1c(cccc1)[C@@H](N2N=NC(C=3C=4C(=O)NC=NC4NC3)=C2)CC]
- inhibition at 1 µM: 24%

Structure (SMILES): O=c1[nH]cnc2[nH]cc(-c3cn(C4CCNCC4)nn3)c12 [Compound 02H04, O=C1NC=NC=2NC=C(C=3N=NN(C3)C4CC[NH2+]CC4)C12]
- inhibition at 1 µM: 28%

Structure (SMILES): N#CCC1(Cn2cc(-c3c[nH]c4nc[nH]c(=O)c34)nn2)CC1 [Compound 03A06, O=C1NC=NC=2NC=C(C=3N=NN(C3)CC4(CC#N)CC4)C12]
- inhibition at 1 µM: 65%
